{"source": "patent US20050209216A1", "about": "“Phenyl-and pyridyl-diazaheterocycles having a tnf-modulating activity” (priority 2002, published 2005)", "note": "Structures can show the parent of a compound that is named as a salt."}
{"units": {"melting point": "°C"}}
{"smiles": "Clc1cccc(N2CC3CCC(C2)N3CCc2ccc3ccncc3c2)n1", "melting point": "141 to 142"}
{"smiles": "FC(F)(F)c1cccc(N2C3CCC2CN(CCc2ccc4ccncc4c2)C3)c1", "note": "(as salt: hydrochloride) (hydrate or solvate)", "melting point": "151 to 153"}
{"smiles": "FC(F)(F)c1cccc(N2CC3CCC(C2)N3CCc2ccc3ccncc3c2)n1", "note": "(as salt: hydrochloride) (hydrate or solvate)", "melting point": "258 to 260"}
{"smiles": "FC(F)(F)c1cccc(N2C3CCC2CN(CCc2ccc4ccncc4c2)C3)n1", "note": "(as salt: hydrochloride) (hydrate or solvate)", "melting point": "158 to 160"}
{"smiles": "Clc1cccc(N2CCN(CCc3ccc4ccncc4c3)CC2)n1", "note": "(as salt: hydrochloride) (hydrate or solvate) [Example 3]", "melting point": "108 to 110"}
{"smiles": "FC(F)(F)c1cccc(N2CCN(CCc3ccc4cccnc4c3)CC2)n1", "note": "(as salt: hydrochloride) [Example 11]", "melting point": "228 to 230"}
{"smiles": "FC(F)(F)c1ccc(N2CCN(CCc3ccc4cccnc4c3)CC2)nc1", "note": "(as salt: hydrochloride) [Example 12]", "melting point": "108 to 110"}
{"smiles": "FC(F)(F)c1cccnc1N1CCN(CCc2ccc3cccnc3c2)CC1", "note": "(as salt: hydrochloride) [Example 13]", "melting point": "163 to 164"}
{"smiles": "FC(F)(F)c1cccc(N2CC3CCC(C2)N3CCc2ccc3ccncc3c2)c1", "note": "(as salt: oxalate)", "melting point": "97 to 99"}
{"smiles": "FC(F)(F)c1cccc(N2CCCN(CCc3ccc4ccncc4c3)CC2)c1", "note": "(as salt: oxalate) [Example 4]", "melting point": "135 to 137"}
{"smiles": "Clc1cccc(N2CCN(CCc3ccc4cccnc4c3)CC2)n1", "note": "(as salt: oxalate) [Example 10]", "melting point": "170 to 172"}
